Activity calls are given as the source filed them. No cut-off for these calls is given here.
Legend:
MDA-MB-231 = test: Antiproliferative activity against human MDA-MB-231 cells assessed as inhibition of cell growth incubated for 7 days by MTT assay; assay type: functional, cell-based; conditions: MDA-MB-231, 168 h
HCT-116 [1] = test: Antiproliferative activity against human HCT-116 cells assessed as inhibition of cell growth incubated for 7 days by MTT assay; assay type: functional, cell-based; conditions: HCT-116, 168 h
HCT-116 [2] = test: Inhibition of Wnt/beta-Catenin signaling in human HCT-116 cells assessed as decrease in active beta-catenin levels at 10 uM by Western blot analysis; assay type: cell-based
HCT-116 [3] = test: Induction of apoptosis in human HCT-116 cells assessed as early apoptotic cells at 5 uM incubated for 3 days by annexinV-FITC/propidium iodide staining based flow cytometry (reference value: 7.67 %); assay type: functional; conditions: time 3 day
[4] = biological target: T1, Protein mono-ADP-ribosyltransferase PARP10 (Homo sapiens, UniProt Q53GL7); test: Inhibition of PARP-10 (unknown origin)
T1 sequence (Q53GL7 whole entry): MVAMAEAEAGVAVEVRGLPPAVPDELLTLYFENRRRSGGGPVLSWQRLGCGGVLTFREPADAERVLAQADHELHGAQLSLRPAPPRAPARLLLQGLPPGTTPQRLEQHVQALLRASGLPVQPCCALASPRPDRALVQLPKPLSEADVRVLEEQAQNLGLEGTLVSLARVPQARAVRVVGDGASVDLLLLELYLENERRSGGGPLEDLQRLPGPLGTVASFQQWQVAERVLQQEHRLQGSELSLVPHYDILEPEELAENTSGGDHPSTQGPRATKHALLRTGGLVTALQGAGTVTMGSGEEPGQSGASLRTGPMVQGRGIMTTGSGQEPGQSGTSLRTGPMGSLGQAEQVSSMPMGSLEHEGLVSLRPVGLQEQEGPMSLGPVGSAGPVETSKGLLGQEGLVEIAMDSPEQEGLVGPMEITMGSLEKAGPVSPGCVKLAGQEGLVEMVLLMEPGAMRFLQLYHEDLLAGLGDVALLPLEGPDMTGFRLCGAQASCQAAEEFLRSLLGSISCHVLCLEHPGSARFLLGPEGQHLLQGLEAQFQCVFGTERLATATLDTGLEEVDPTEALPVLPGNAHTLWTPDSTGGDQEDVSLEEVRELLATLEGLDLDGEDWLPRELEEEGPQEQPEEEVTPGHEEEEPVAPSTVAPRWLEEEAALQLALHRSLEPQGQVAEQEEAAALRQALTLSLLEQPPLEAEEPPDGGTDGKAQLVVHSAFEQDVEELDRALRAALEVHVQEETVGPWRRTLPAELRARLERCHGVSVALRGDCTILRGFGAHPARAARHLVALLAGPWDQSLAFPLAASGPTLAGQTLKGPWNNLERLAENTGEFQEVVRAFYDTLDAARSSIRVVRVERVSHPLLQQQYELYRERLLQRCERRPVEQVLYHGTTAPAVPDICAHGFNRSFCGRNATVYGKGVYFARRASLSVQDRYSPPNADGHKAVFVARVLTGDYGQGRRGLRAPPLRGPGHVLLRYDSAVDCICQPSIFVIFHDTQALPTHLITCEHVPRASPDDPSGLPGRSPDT

[5] = Toxicity in […] assessed as effect on body weight at 500 mg/kg, ip administered as single dose and measured on day 4 (reference value: 24.50 +/- 3.11 g); assay type: organism-based; conditions: in vivo
HCT-116 [6] = test: Antitumor activity against human HCT-116 cells xenografted in BALB/c nude mouse assessed as tumor growth inhibition at 100 mg/kg, ip administered once daily for 28 days; assay type: functional; conditions: HCT-116, 672 h, time 28 day, read-out: TGI
[7] = biological target: Poly [ADP-ribose] polymerase 1 (Homo sapiens, UniProt P09874); conditions: dose 10.0 nM, time 45.0 min
Chain of Poly [ADP-ribose] polymerase 1 (P09874 whole entry): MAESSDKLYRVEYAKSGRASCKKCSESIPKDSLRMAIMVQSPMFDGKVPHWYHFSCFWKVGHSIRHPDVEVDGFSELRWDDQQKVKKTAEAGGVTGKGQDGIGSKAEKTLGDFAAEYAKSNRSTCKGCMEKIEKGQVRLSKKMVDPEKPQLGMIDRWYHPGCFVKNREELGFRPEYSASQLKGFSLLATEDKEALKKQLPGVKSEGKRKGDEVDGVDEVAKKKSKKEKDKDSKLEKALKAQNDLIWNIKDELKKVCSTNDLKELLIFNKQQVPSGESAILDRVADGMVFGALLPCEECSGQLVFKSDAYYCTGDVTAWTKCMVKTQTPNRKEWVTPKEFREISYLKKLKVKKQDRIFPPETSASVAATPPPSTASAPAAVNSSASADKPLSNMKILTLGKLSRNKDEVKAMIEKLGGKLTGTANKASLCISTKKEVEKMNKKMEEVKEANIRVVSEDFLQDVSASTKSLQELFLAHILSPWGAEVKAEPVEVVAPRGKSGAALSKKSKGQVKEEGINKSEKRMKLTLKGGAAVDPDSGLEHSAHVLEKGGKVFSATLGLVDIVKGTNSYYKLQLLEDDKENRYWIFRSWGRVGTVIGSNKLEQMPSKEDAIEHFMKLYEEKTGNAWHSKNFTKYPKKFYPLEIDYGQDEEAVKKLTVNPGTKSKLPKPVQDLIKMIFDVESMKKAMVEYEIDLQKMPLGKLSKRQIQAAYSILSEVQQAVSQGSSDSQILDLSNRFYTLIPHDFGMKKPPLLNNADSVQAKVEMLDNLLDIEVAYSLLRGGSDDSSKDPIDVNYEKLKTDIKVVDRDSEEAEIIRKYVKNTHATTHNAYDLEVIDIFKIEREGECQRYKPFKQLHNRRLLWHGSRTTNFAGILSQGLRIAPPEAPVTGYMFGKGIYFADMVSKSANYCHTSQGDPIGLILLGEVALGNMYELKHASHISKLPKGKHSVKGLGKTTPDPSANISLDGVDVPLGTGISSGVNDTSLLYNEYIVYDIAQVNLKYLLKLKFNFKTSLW

[8] = biological target: T2, Poly [ADP-ribose] polymerase tankyrase-2 (Homo sapiens) (UniProt Q9H2K2); conditions: dose 10.0 nM, time 1.0 hrs
T2 sequence (whole entry): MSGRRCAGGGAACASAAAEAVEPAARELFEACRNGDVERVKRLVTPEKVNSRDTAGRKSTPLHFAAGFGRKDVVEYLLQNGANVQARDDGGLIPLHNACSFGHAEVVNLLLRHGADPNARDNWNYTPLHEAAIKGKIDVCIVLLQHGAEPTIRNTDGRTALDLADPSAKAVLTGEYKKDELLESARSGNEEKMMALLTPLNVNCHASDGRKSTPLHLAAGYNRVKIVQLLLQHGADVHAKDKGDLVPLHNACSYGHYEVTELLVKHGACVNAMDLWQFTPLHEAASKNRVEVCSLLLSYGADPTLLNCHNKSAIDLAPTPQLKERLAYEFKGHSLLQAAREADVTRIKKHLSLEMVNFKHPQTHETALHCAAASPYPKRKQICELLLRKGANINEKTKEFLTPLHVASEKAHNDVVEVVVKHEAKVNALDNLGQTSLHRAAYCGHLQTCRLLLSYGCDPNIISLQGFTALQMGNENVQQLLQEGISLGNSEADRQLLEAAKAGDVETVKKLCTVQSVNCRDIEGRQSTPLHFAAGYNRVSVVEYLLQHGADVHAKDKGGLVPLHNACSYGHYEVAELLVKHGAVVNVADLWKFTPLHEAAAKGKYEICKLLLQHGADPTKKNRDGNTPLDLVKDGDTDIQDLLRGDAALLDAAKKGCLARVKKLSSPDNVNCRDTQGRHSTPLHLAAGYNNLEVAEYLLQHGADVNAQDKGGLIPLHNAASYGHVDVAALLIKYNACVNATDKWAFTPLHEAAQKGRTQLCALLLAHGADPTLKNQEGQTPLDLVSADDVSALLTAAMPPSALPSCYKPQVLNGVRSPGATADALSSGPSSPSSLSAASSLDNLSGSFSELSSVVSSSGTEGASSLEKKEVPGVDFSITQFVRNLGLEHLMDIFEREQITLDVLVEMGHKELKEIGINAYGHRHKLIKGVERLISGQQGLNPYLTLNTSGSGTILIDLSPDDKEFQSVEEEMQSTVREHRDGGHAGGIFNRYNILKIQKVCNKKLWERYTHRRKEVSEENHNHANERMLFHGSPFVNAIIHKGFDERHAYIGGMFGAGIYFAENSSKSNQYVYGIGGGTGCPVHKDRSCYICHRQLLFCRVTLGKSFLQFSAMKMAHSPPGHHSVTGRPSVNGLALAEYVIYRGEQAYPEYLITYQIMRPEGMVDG

## COc1ccc(NC(=O)c2ccc(NC(=O)N3CCN(C(=O)c4cc(Cc5n[nH]c(=O)c6ccccc56)ccc4F)CC3)cc2)cc1
MDA-MB-231
  IC50: 870 nM
HCT-116 [1]
  IC50: 750 nM
HCT-116 [2]
  inhibition: Active
HCT-116 [3]
  Activity: 6.61%
[4]
  IC50: 140 nM
[5]
  Activity: 23 g
HCT-116 [6]
  inhibition in vivo at 100 mg/kg: 51.7%
[7]
  inhibition: 97%
[8]
  inhibition: 68.5%

— ChEMBL document CHEMBL5120857, “Rational design, synthesis and biological evaluation of dual PARP-1/2 and TNKS1/2 inhibitors for cancer therapy” (Eur J Med Chem, 2022)
